Entries after “also recorded” stand apart in the source; their conditions may differ.
Tests used:
[1] = system: Homozygous Holstein^Tg/Tg mice; assay: Survival of Hol^Tg/Tg mice after enema treatment (model of Trisomy 21 [Collagen VI]-associated HSCR); format: in vivo, mouse
Description: Mice. Homozygous Holstein^Tg/Tg mice (Hol^Tg/Tg; a model for Trisomy 21 [Collagen VI]-associated HSCR) were treated with either 10 μl enemas of GDNF (1 μg/μl), or 10 μl of GDNF combined with 5 mM of amino-butyrate acid (Butyrate) or other growth factors at 1 μg/μl, or vehicle (1×PBS) as control. Enemas were administered once a day from postnatal day (P) 4 until P8, and mice were monitored daily until P60 or megacolon-associated death. Survival graphs and statistical analyses were generated with GraphPad Prism software. One-way ANOVA followed by post-hoc Tukey multiple comparison test was carried out, and significance level was set at P<0.05. Number of biological replicates (n) of each cohort is indicated where relevant in Figures.
It was tested whether molecules known to have neurotrophic effects could improve the effect of GDNF on survival in a mouse model for Trisomy 21 [Collagen VI]-associated HSCR) (39).
The molecules that were tested in the present study are: Bone morphogenetic protein 4 (BMP4), Nerve growth factor (NGF), Brain-derived neurotrophic factor (BDNF), Mesencephalic Astrocyte Derived Neurotrophic Factor (MANF), Cerebral Dopamine Neurotrophic Factor (CDNF), Epidermal Growth Factor (EGF), Neurturin (NRTN), Fibroblast growth factor 2 (FGF2), butyrate and Retinoic Acid (RA).

[2] = system: mouse model for Trisomy 21 [Collagen VI]-associated HSCR; conditions: previous study, same mouse model; Soret et al., Gastroenterology 2020, Supplementary FIG. 1G; cited from earlier work
[3] = literature reports, various models; cited from earlier work

Molecule: CCCC(=O)O [butyrate]
- effect on survival of combination with GDNF relative to GDNF alone ([1]; 10 μl enema of GDNF 1 μg/μl combined with 5 mM butyrate or other growth factor at 1 μg/μl, once a day P4 until P8, monitored until P60): significantly potentiate the effect of recombinant GDNF; also recorded: acts synergistically with GDNF to improve survival
- effect on mouse survival, substance alone ([1]; 10 μl enema once a day P4 until P8, butyrate 5 mM, compared with vehicle (1×PBS), monitored until P60): did not have any effect on survival; also recorded: no effect on mouse survival

Molecule: NCCc1c[nH]c2ccc(O)cc12 [serotonin]
- survival of mice, combination with GDNF relative to GDNF alone [2]: did not improve the survival of mice relative to GDNF alone

Molecule: O=C1O[C@H]([C@@H](O)CO)C(O)=C1O [vitamin C]
- survival of mice, combination with GDNF relative to GDNF alone [2]: did not improve the survival of mice relative to GDNF alone

Molecule: CDNF: Cerebral Dopamine Neurotrophic Factor
- Reported neurotrophic activity [3]: CDNF is essential for enteric neuronal development

Molecule: EGF: Epidermal Growth Factor
- Reported neurotrophic activity [3]: EGF is chemoattractant and chemokinetic molecule for

Molecule: FGF2: Fibroblast growth factor 2
- Reported neurotrophic activity [3]: FGF2 enhances the proliferation and differentiation of

Molecule: endothelin 3: molecule known to have neurotrophic effects, combined with GDNF in a previous study
- survival of mice, combination with GDNF relative to GDNF alone [2]: did not improve the survival of mice relative to GDNF alone
